Test results: US20090325877A1, “Combination Product of Receptor Tyrosine Kinase Inhibitor and Fatty Acid Synthase Inhibitor for Treating Cancer” (Wyeth, priority 2008, published 2009)
≈ marks a conversion by molar mass, not a printed value. Entries after “also recorded” stand apart in the source; their conditions may differ.

Assays:
[1] = test system: SKOV3 ovarian cancer cells; assay: Formazan dye (MTT) in-vitro cell growth assay, SKOV3; format: cell-based
Description: Cells were plated at 0.5−5×10^3/well in 96-well plates. After adhesion, media ±drugs alone or in combination were added. Cell numbers were estimated after 3-5 days by using a colorimetric formazan dye assay (Biomedica, Vienna, Austria). […] Statistical analysis of data from drug combination treatment experiments was performed using one-factorial ANOVA followed by Scheffe-test.
Yellow MTT (3-(4,5-Dimethylthiazol-2-yl)-2,5-diphenyltetrazolium bromide, a tetrazole) is reduced to purple formazan in the mitochondria of living cells (see Mosmann, T., J. Immunol. Methods, 65(1-2): 55-63, 1983).

FASN protein = FASN protein level by Western blotting in A2780 cells; format: cell-based
ErbB2 mRNA [2] = assay: ErbB2 mRNA by RT-PCR and qRT-PCR in A2780 cells; format: cell-based, human
Text: RNA was extracted from the cells using TRI-REAGENT™ (Molecular Research Center, Cincinnati, Ohio) and subjected to reverse transcription—polymerase chain reaction (“RT-PCR”) using the TITAN ONE TUBE RT-PCR KIT™ system (Hoffmann-La Roche). Primers were: EGFR: 5′-[…]-3′ (SEQ ID NO:1) (forward, E1S) 5′-[…]-3′ (SEQ ID NO:2) (reverse, E1A); ErbB-2: 5′-[…]-3′ (SEQ ID NO:3) (forward, E2S2), 5′-[…]-3′ (SEQ ID NO:4) (reverse, E2A2); GAPDH: 5′-[…]-3′ (SEQ ID NO:5) (forward, GAPDH3S), 5′-[…]-3′ (SEQ ID NO:6) (reverse, GAPDH3A). Conditions for reverse transcription and amplification of the EGFR coding sequence were: 50° C., 30 minutes; 94° C., 2 minutes; 10 cycles (94° C., 30 seconds; 64.9° C., 30 seconds; 68° C., 90 seconds); 30 cycles (94° C., 30 seconds; 64.9° C., 30 seconds; 68° C., 90 seconds +5 seconds autoextension) and 68° C., 7 minutes. Conditions for ErbB2 and GAPDH were: 50° C., 30 minutes; 94° C., 2 minutes; 10 cycles (94° C., 30 seconds; 51° C., 30 seconds; 68° C., 45 seconds); 25 cycles (94° C., 30 seconds; 51° C., 30 seconds; 68° C., 45 seconds +5 seconds autoextension) and 68° C., 7 minutes. DNA products had the following sizes: EGFR: 1452 bp, ErbB2: 900 bp, GAPDH: 488 bp. Fragments were electrophoresed and stained with ethidium bromide.
(§1) Quantitative RT-PCR (“qRT-PCR”) was performed in the ABI PRISM 7000™ Sequence Detector (Applied Biosystems, Foster City, Calif.) using human EGFR, ErbB2, and FASN TaqMan® Gene Expression Assay systems (Applied Biosystems; Assay IDs: Hs00193306_m1, Hs00170433_m1, Hs00188012_m1) according to the manufacturer's instructions. β-actin and GAPDH (VIC™ and FAM labeled pre-developed TaqMan® Assay reagents, Applied Biosystems) were used as endogenous controls. EGFR, ErbB2, and FASN mRNA expression were calculated as described previously (Grunt, ibid).

ErbB2 protein = assay: Total and phosphorylated ErbB2 protein by Western blot in A2780 cells; format: cell-based
Description: (§2) Cells plated in culture media containing 5% fetal calf serum at a density of 2.6×10^5 (SKOV3) or 6×10^5 (A2780) in 60 mm dishes (Corning, Corning, N.Y.) were treated with FASN inhibitor C75, with small-molecule ErbB RTK inhibitors (RTKIs), with the MEK1/2 antagonist U0126 or with the PI3K inhibitor LY294002 for the indicated times and at various concentrations. In some experiments cells were stimulated for 5 or 10 min with 100 ng/ml EGF (Sigma) before lysis in RIPA buffer (Grunt et al., Biochem Biophys Res Commun 329:1253-1259, 2005). Proteins (20 μg/lane) were subjected to SDS-PAGE, blotted onto PVDF membranes and immunostained (see Grunt, ibid) using the following antibodies: 2 μg/ml goat anti-pEGFR(Tyr1173) (sc-12351), 1 μg/ml rabbit anti-ErbB2 (C-18) (sc-284), 1 μg/ml rabbit anti-pErbB2(Tyr1248) (sc-12352-R) (all from Santa Cruz Biotechnology Inc., Santa Cruz, Calif.), rabbit anti-EGFR 1:1,000 (2232), rabbit anti-AKT 1:1,000 (9272), rabbit anti-pAKT(Ser473) 1:1,000 (9271), rabbit anti-pAKT(Thr308) 1:1,000 (9275), rabbit anti-pERK1/2(Thr202/Tyr204) 1:1,000 (9101) (all from Cell Signaling Technology), rabbit anti-ERK1/2 1:3,000 (06-182, Upstate Biotechnology Inc., Lake Placid, N.Y.), 0.5 μg/ml mouse monoclonal anti-FASN (610963, BD Biosciences, San Jose, Calif.), or 0.67 μg/ml goat anti-human actin (1-19, sc-1616, Santa Cruz Biotechnology). Secondary antibodies were peroxidase-tagged donkey-anti-rabbit IgG (V795A, Promega, Madison, Wis.) or donkey-anti-goat IgG (sc-2020, Santa Cruz Biotechnology) at 1:15,000, respectively, or chicken anti-mouse IgG (sc-2954, Santa Cruz Biotechnology) at 1:10,000. Detection was performed by enhanced chemiluminescence.

ErbB2 mRNA [3] = assay: ErbB2 mRNA by qRT-PCR in SKBR3 breast cancer cells; format: cell-based, human
Text: RNA was extracted from the cells using TRI-REAGENT™ (Molecular Research Center, Cincinnati, Ohio) and subjected to reverse transcription—polymerase chain reaction (“RT-PCR”) using the TITAN ONE TUBE RT-PCR KIT™ system (Hoffmann-La Roche). Primers were: EGFR: 5′-[…]-3′ (SEQ ID NO:1) (forward, E1S) 5′-[…]-3′ (SEQ ID NO:2) (reverse, E1A); ErbB-2: 5′-[…]-3′ (SEQ ID NO:3) (forward, E2S2), 5′-[…]-3′ (SEQ ID NO:4) (reverse, E2A2); GAPDH: 5′-[…]-3′ (SEQ ID NO:5) (forward, GAPDH3S), 5′-[…]-3′ (SEQ ID NO:6) (reverse, GAPDH3A). Conditions for reverse transcription and amplification of the EGFR coding sequence were: 50° C., 30 minutes; 94° C., 2 minutes; 10 cycles (94° C., 30 seconds; 64.9° C., 30 seconds; 68° C., 90 seconds); 30 cycles (94° C., 30 seconds; 64.9° C., 30 seconds; 68° C., 90 seconds +5 seconds autoextension) and 68° C., 7 minutes. […]
as §1

AKT = AKT phosphorylation and expression by Western blotting in A2780 and SKOV3 cells; format: cell-based
Description: as §2, with “Secondary antibodies were peroxidase-tagged donkey-anti-rabbit IgG (V795A, Promega, Madison, Wis.) or donkey-anti-goat IgG (sc-2020, Santa Cruz Biotechnology) at 1:15,000, respectively, or chicken anti-mouse IgG (sc-2954, Santa Cruz Biotechnology) at 1:10,000. Detection was performed by enhanced chemiluminescence.” left out

ERK1/2 = ERK1/2 phosphorylation and expression by Western blotting in A2780 and SKOV3 cells; format: cell-based
Description: as §2, with “Secondary antibodies were peroxidase-tagged donkey-anti-rabbit IgG (V795A, Promega, Madison, Wis.) or donkey-anti-goat IgG (sc-2020, Santa Cruz Biotechnology) at 1:15,000, respectively, or chicken anti-mouse IgG (sc-2954, Santa Cruz Biotechnology) at 1:10,000. Detection was performed by enhanced chemiluminescence.” left out

With C=C1C(=O)OC(CCCCCCCC)C1C(=O)O (stereo not shown) [C75, tetrahydro-3-methylene-2-oxo-5-n-octyl-4-furancarboxylic acid] the inhibition at 10 µg/mL ([1]; Homo sapiens, SK-OV-3, 10 μg/ml C75 on its own) was 50 to 55%, the “in vitro growth inhibition (in words)” value ([1]; MTT assay, single drug) was “growth inhibitory activity” and the “IT50, FASN protein” value (FASN protein) was 40 h. The IC50 (FASN protein; Homo sapiens, read-out: IC50, down-regulation of FASN protein) was 4.15 µg/mL (≈ 16.3 µM), the “FASN protein expression, effect in words” value (FASN protein; b102: within three days, pelitinib at doses as low as 3 μM) was “shut-down” and the “ErbB2 mRNA, effect in words” value (ErbB2 mRNA [2]) was “not affected; also recorded: failed to diminish”. The “phosphorylated ErbB2 (pErbB2), effect in words” value (ErbB2 protein) was “downregulates; also recorded: deprivation”, the “total ErbB2 protein, effect in words” value (ErbB2 protein) was “downregulates; also recorded: deprivation” and the “ErbB2 mRNA, effect in words” value (ErbB2 mRNA [3]) was “dose-dependent decline; also recorded: dose-dependent down-regulation”. The “phosphorylation of AKT (Ser473, Thr308), effect in words” value (AKT) was “dose-dependently inhibits”, the “total AKT protein level, effect in words” value (AKT; C75 at high concentrations) was “slightly affects” and the “pERK1/2 levels, effect in words” value (ERK1/2) was “dose-dependently increase”. The “total ERK1/2 levels, effect in words” value (ERK1/2) was “concurrently decline”.
